The text below walks through data of ChEMBL document CHEMBL1124539, “17-Desoxy estrogen analogues” (J Med Chem, 1989).

For experiment [1], the species on record is Rattus norvegicus.
For experiment [2], the target named is T1, Estrogen receptor (Rattus norvegicus) (UniProt P06211+Q62986).
The test system of experiment [3] is Rattus norvegicus. The experiment in a line: In vivo antifertility potency in rats at 200 ug/kg/day. The format is functional.
In experiment [4] the target is T1, Estrogen receptor (Rattus norvegicus). This is another data set of the same source.
Description: In vivo uterotrophic effect in immature rats
The target of experiment [5] is T2, Estrogen receptor (Rattus norvegicus, UniProt P06211+Q62986).
Experiment [6] addresses T3, Estrogen receptor (Homo sapiens, UniProt Q92731+P03372). The experiment in a line: Displacement of [3H]estradiol from estrogen receptor in squirrel monkey. The class given is protein assay. A general note: In a radioligand displacement assay an active substance lowers the binding of a labelled ligand.
Experiment [7] deals with T3, Estrogen receptor. The experiment in a line: Estrogenic effect in rhesus monkey relative to ethynylestradiol. The format is functional. The note with it: Macaca mulatta; target entry is the homologue from another species.
For experiment [8], the system named is Rattus norvegicus. The experiment in a line: In vivo anti-fertility activity in rat. The format is functional.
The target of experiment [9] is T1, Estrogen receptor (Rattus norvegicus). This is another data set of the same source.
Experiment [10] concerns Rattus norvegicus. The experiment in a line: In vivo […] activity in rats. The format is functional.
Experiment [11] addresses T1, Estrogen receptor (Rattus norvegicus). The experiment in a line: In vivo estrogenic receptor potency relative to ethynylestradiol in rat. The class given is functional, organism-based.
Experiment [12] deals with T3, Estrogen receptor. The experiment in a line: Displacement of [3H]estradiol from estrogen receptor in immature rabbit. The format is protein assay, Oryctolagus cuniculus. The note with it: target entry is the homologue from another species.
Experiment [13] has as its target T2, Estrogen receptor. The source holds these as a separate data set.

In brackets after ≈: the same amount, converted by molar mass. A value given as a limit tells only on which side of the number the result lay.

In [1], `C[C@]12CC[C@@H]3c4ccc(O)cc4CC[C@H]3[C@@H]1CC[C@@H]2CO` yielded an Antifertility potency of less than 110. The Estrogenic potency in experiment [2] was 0.03.

In turn, `[2H]C([2H])=C1CC[C@H]2[C@@H]3CCc4cc(O)ccc4[C@H]3CC[C@]12C` displayed an Antifertility potency in [1] of 67.

Take `C[C@]12CC[C@@H]3c4ccc(O)cc4CC[C@H]3[C@@H]1CC[C@@H]2C#N`: the Antifertility potency in [1] is less than 10. In addition, the Estrogenic potency in experiment [2] is 0.05.

For `CCC[C@H]1CC[C@H]2[C@@H]3CCc4cc(O)ccc4[C@H]3CC[C@]12C`, the Antifertility potency in [1] amounted to 20. In experiment [2], this molecule displayed an Estrogenic potency of 0.8.

In the case of `C=C1CC[C@H]2[C@@H]3CCc4cc(O)ccc4[C@H]3[C@H](O)C[C@]12C`, the Antifertility potency in [1] was found to be 10. In [2], this molecule registered an Estrogenic potency of 0.02.

Consider `CC[Si](C#C[C@]1(O)CC[C@H]2[C@@H]3CCc4cc(O)ccc4[C@H]3CC[C@@]21C)(CC)CC`, for which, in experiment [1], the Antifertility potency worked out at 600. This molecule returned an Estrogenic potency in experiment [2] of 37.

In the case of `CC[C@H]1CC[C@H]2[C@@H]3CCc4cc(O)ccc4[C@H]3C(=O)C[C@]12C`, the Antifertility potency in experiment [1] was more than 1000.

In [1], `C[C@]12CC[C@@H]3c4ccc(O)cc4CC[C@H]3[C@@H]1CC/C2=N\N` yielded an Antifertility potency of less than 10. The Estrogenic potency in experiment [2] is 1.6.

`C/C=C1\CC[C@H]2[C@@H]3CCc4cc(O)ccc4[C@H]3CC[C@]12C` returned an Antifertility potency in [1] of 10. For the same molecule, the Estrogenic potency in experiment [2] stood at 0.3.

Take `CC[C@H]1CC[C@H]2[C@@H]3CCc4cc(O)ccc4[C@H]3[C@@](C)(O)C[C@]12C`: the Antifertility potency in [1] is less than 20. Besides, the Estrogenic potency in experiment [2] is 0.05.

Molecule `CC[C@H]1CC[C@H]2[C@@H]3CCc4cc(O)ccc4[C@H]3CC[C@]12C` (stereo in doubt; 8i) [listing 1 of 2 here] returned an Estrogenic potency in experiment [2] of 0.16.

In the case of `CC[Si](C#C[C@H]1CC[C@H]2[C@@H]3CCc4cc(O)ccc4[C@H]3CC[C@]12C)(CC)CC`, the Antifertility potency in experiment [1] is reported as less than 4. This molecule registered an Estrogenic potency in experiment [2] of 0.04.

As for `CC(=O)[C@H]1CC[C@H]2[C@@H]3CCc4cc(O)ccc4[C@H]3CC[C@]12C`, the Antifertility potency in experiment [1] is given as less than 4. In experiment [2], this molecule returned an Estrogenic potency of 0.01.

In the case of `CC[C@H]1CC[C@H]2[C@@H]3CCc4cc(O)ccc4[C@H]3[C@@H](OC)C[C@]12C`, the Antifertility potency in experiment [1] was more than 2000. For the same molecule, the Estrogenic potency in experiment [2] was found to be 37.

`C[C@]12CC[C@@H]3c4ccc(O)cc4CC[C@H]3[C@@H]1CCC2=S` returned an Estrogenic potency in [2] of 2.4.

For `CO/N=C1\CC[C@H]2[C@@H]3CCc4cc(O)ccc4[C@H]3CC[C@]12C`, the Antifertility potency in [3] is given as 4. The same molecule gave an Estrogenic potency in experiment [2] of 0.04.

`C=C(C)[C@H]1CC[C@H]2[C@@H]3CCc4cc(O)ccc4[C@H]3CC[C@]12C` returned an Antifertility potency in experiment [1] of less than 10. For the same molecule, the Estrogenic potency in experiment [2] came out at 0.08.

Consider `CC[C@H]1CC[C@H]2[C@@H]3CCc4cc(O)ccc4[C@H]3CC[C@]12C` (stereo in doubt; 8i) [listing 2 of 2 here], for which, in [1], the Antifertility potency is reported as less than 40.

Regarding `CC[C@H]1CC[C@H]2[C@@H]3CCc4cc(O)ccc4[C@H]3[C@@H](O)C[C@]12C`, the figures for the Uterotrophic effect in [4] and in experiment [9] were 0.04 and 2, respectively. Also, in experiment [1], the Antifertility potency is listed as 20. The figures for the EC50 in [5] and in experiment [6] were 5.6 mg/L (≈ 18.6 µM) and 22 mg/L (≈ 73.2 µM), respectively. In addition, the Estrogenic effect in experiment [7] was less than 8. In addition, the Antifertility activity in [8] stood at 20. For the same molecule, the Estrogenic potency in experiment [2] came to 0.03.

The molecule `COc1ccc2c(c1)CC[C@@H]1[C@@H]2CC[C@]2(C)[C@@H](c3ccccc3)CC[C@@H]12` displayed an Antifertility potency in experiment [1] of less than 4. Also, the Estrogenic potency in experiment [2] was less than 0.1.

As to `C#C[C@H]1CC[C@H]2[C@@H]3CCc4cc(O)ccc4[C@H]3CC[C@]12C`, in experiment [1], the Antifertility potency is given as less than 10. In addition, in [2], the Estrogenic potency stood at 0.07.

`COc1ccc2c(c1)CCC1C2CCC2(C)C1C=C[C@@]2(O)c1ccccc1` (some centres undefined) returned an Antifertility potency in [3] of less than 10. Moreover, the Estrogenic potency in experiment [2] came to 0.14.

On to `C[C@]12CC[C@@H]3c4ccc(O)cc4CC[C@H]3[C@@H]1CC/C2=N\O`, for which the Antifertility potency in experiment [3] is recorded as 4. In experiment [2], the Estrogenic potency was found to be 0.28.

The molecule `C=C[C@H]1CC[C@H]2[C@@H]3CCc4cc(O)ccc4[C@H]3CC[C@]12C` showed an Antifertility potency in experiment [1] of 10. This molecule also had an Estrogenic potency in experiment [2] of 0.26.

`C=C1CCC2C3C=Cc4cc(O)ccc4C3CCC12C` (centres undefined): the Antifertility potency in experiment [1] is less than 5. Further, the Estrogenic potency in experiment [2] came out at 0.04.

For the molecule `C/C=C1/CC[C@H]2[C@@H]3CCc4cc(O)ccc4[C@H]3[C@H](O)C[C@]12C`, the Antifertility potency in [1] is reported as less than 7. This molecule gave an Estrogenic potency in experiment [2] of 0.04.

In experiment [1], `C#C[C@]1(O)CC[C@H]2[C@@H]3CCc4cc(O)ccc4[C@H]3[C@@H](OC)C[C@@]21C` [MOXESTROL] gave an Antifertility potency of 1000. Moreover, the Estrogenic potency in experiment [2] is 2000.

`CCC/C=C1\CC[C@H]2[C@@H]3CCc4cc(O)ccc4[C@H]3CC[C@]12C`: in experiment [1], the Antifertility potency was less than 20. The molecule further gave an Estrogenic potency in experiment [2] of 0.2.

For `C=C1CC[C@H]2[C@@H]3[C@H](O)Cc4cc(O)ccc4[C@H]3CC[C@]12C`, in experiment [1], the Antifertility potency is on record as less than 20. The molecule also registered an Estrogenic potency in experiment [2] of 0.1.

For the molecule `CC12CCC3c4ccc(O)cc4CCC3C1C=CC2C#N` (centres undefined), the Antifertility potency in experiment [3] is reported as less than 4. The Estrogenic potency in [2] was less than 0.1.

For `CC[Si](CC)(CC)CC[C@H]1CC[C@H]2[C@@H]3CCc4cc(O)ccc4[C@H]3CC[C@]12C`, the Antifertility potency in experiment [1] came out at 10. In experiment [2], this molecule showed an Estrogenic potency of 0.27.

Regarding `CC/C=C1\CC[C@H]2[C@@H]3CCc4cc(O)ccc4[C@H]3CC[C@]12C`, the Antifertility potency in experiment [1] was less than 20. In [2], the Estrogenic potency stood at 0.4.

For the molecule `C#C[C@]1(O)CC[C@H]2[C@@H]3CCc4cc(O)ccc4[C@H]3CC[C@@]21C` [ETHINYL ESTRADIOL], in [1], the Antifertility potency is reported as 100. Also, the Infertility activity in [10] stood at 100.

Consider `CC[C@H]1CC[C@H]2[C@@H]3CCc4cc(O)ccc4[C@H]3CC[C@]12C` (stereo in doubt; 8b) [listing 1 of 2 here], for which the Uterotrophic effect amounted to 1 in [4] and 11 in experiment [9]. Besides, the Estrogenic potency in [11] was found to be 1.

For the molecule `CC[C@H]1CC[C@H]2[C@@H]3[C@H](O)Cc4cc(O)ccc4[C@H]3CC[C@]12C`, in experiment [1], the Antifertility potency is listed as less than 10. Further, the Estrogenic potency in experiment [2] turned out to be 0.04.

Regarding `CC(F)(F)[C@H]1CC[C@H]2[C@@H]3CCc4cc(O)ccc4[C@H]3CC[C@]12C`, the Antifertility potency in experiment [1] is less than 20. The Estrogenic potency in [2] is 0.09.

In experiment [1], `C[C@H]1CC[C@H]2[C@@H]3CCc4cc(O)ccc4[C@H]3CC[C@]12C` returned an Antifertility potency of 20. This molecule yielded an Estrogenic potency in experiment [2] of 0.3.

`CC[C@H]1CC[C@H]2[C@@H]3C(C)Cc4cc(O)ccc4[C@H]3CC[C@]12C` (some centres undefined) returned an Antifertility potency in experiment [1] of less than 200. Besides, in experiment [2], the Estrogenic potency was 15.

In turn, `C[C@]12CC[C@@H]3c4ccc(O)cc4CC[C@H]3[C@@H]1CC/C2=N\Nc1ccccn1` displayed an Antifertility potency in experiment [1] of less than 4. The molecule further returned an Estrogenic potency in experiment [2] of 0.1.

Turning to `C[C@]12CC[C@@H]3c4ccc(O)cc4CC[C@H]3[C@@H]1CC/C2=C\C=O`, the Antifertility potency in experiment [1] is 10. In experiment [2], the Estrogenic potency was found to be 0.05.

`C=C1C[C@]2(C)[C@@H](CC)CC[C@H]2[C@@H]2CCc3cc(O)ccc3[C@@H]12` had an Antifertility potency in experiment [1] of 400. Besides, the Estrogenic potency in [2] was found to be 64.

Take `CC[C@H]1CC[C@H]2[C@@H]3CCc4cc(O)ccc4[C@H]3CC[C@]12C` (stereo in doubt; 8b) [listing 2 of 2 here]: the Antifertility potency in experiment [1] is 66. For the same molecule, the EC50 in experiment [5] was 20 mg/L (≈ 70.3 µM); in experiment [12] it was 11 mg/L (≈ 38.7 µM); in experiment [6], 60 mg/L (≈ 211 µM); in experiment [13], 8 mg/L (≈ 28.1 µM). The molecule also showed an Infertility activity in [10] of 66.

Turning to `CCCC[C@H]1CC[C@H]2[C@@H]3CCc4cc(O)ccc4[C@H]3CC[C@]12C`, in [1], the Antifertility potency is recorded as less than 10. The same molecule gave an Estrogenic potency in [2] of 0.4.

With `COc1ccc2c(c1)CC[C@@H]1[C@@H]2CC[C@@]2(C)[C@H]1CC[C@@]2(O)c1ccccc1`, in experiment [1], the Antifertility potency was 10. The molecule further had an Estrogenic potency in [2] of 0.69.

As usually defined, the EC50 is the concentration needed to bring the measured effect to its halfway point.
